From PMC6572064, “Discovery of 2-(1-(3-(4-Chloroxyphenyl)-3-oxo- propyl)pyrrolidine-3-yl)-1H-benzo[d]imidazole-4-carboxamide: A Potent Poly(ADP-ribose) Polymerase (PARP) Inhibitor for Treatment of Cancer” (Molecules, 2019)
Where two headings read alike, the source gives them in different places. Values belong to the compound of their own block, whether it stands above or below them.

What was measured:
PARP-1 = target: T1, PARP-1 (Homo sapiens, UniProt P09874); experiment: PARP-1 inhibition assay (PARP-1 Chemiluminescent Assay Kit, BPS Bioscience); type: biochemical; details: 10 nM compound
T1 construct: purchased BPS Bioscience 80569
T1 sequence (P09874 whole entry): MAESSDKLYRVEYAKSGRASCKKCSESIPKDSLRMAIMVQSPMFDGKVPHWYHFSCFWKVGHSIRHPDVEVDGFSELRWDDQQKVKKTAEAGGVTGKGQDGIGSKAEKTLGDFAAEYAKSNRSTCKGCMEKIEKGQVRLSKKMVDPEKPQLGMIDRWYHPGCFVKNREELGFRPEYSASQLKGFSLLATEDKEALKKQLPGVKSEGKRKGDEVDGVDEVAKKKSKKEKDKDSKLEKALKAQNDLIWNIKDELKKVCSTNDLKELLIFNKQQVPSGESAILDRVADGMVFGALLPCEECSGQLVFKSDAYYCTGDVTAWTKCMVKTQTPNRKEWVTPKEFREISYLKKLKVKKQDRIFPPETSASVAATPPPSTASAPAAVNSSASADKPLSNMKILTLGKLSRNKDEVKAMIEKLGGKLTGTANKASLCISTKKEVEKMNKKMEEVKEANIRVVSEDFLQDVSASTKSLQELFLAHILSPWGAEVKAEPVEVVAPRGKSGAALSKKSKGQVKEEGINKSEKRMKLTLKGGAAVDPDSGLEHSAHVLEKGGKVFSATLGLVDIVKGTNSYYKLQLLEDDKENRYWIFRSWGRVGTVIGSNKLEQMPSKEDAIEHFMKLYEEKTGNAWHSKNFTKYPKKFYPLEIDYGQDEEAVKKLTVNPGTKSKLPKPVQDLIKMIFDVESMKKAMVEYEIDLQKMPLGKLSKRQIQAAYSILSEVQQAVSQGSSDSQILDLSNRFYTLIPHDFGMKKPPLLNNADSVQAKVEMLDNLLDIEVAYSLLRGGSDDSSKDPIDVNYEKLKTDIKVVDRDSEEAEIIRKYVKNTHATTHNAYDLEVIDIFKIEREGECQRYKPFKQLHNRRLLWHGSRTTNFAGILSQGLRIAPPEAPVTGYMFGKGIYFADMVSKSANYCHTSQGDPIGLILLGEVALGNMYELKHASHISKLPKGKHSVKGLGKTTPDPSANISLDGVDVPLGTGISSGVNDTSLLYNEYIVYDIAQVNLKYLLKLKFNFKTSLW
Procedure: (§1) The PARP-1 and PARP-2 inhibition assays were performed in outsourcing, by a CRO company, Shanghai Medicilon Inc. (Shanghai, China). […] Briefly, PARP-1 or PARP-2 biotinylated substrate was incubated with compounds or solvent control at varying concentrations and an assay buffer containing the PARP-1 or PARP-2 enzyme.

PARP-2 = target: T2, PARP-2 (Homo sapiens, UniProt Q9UGN5); experiment: PARP-2 inhibition assay (PARP-2 Chemiluminescent Assay Kit, BPS Bioscience); type: biochemical; details: 10 nM compound
T2 construct: purchased BPS Bioscience 80552
T2 sequence (Q9UGN5 whole entry): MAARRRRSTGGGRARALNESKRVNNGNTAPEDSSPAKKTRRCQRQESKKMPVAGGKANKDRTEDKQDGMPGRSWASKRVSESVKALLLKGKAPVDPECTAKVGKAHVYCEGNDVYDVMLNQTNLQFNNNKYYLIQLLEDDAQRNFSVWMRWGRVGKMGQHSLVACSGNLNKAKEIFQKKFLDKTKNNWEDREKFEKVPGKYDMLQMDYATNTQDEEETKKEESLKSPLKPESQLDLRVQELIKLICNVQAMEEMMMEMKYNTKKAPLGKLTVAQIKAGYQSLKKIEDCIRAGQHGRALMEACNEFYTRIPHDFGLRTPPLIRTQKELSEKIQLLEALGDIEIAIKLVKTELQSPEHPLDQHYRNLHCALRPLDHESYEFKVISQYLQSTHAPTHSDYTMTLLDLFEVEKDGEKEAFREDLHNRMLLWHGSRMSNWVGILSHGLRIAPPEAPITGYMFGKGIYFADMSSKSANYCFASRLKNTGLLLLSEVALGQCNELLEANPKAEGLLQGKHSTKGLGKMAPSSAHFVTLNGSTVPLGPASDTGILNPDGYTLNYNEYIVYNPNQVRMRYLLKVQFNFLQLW
Procedure: as §1

[1] = test system: MDA-MB-436 (a BRCA-1-mutated breast cancer cell line); experiment: Cell proliferation assay, three-day, CellTiter-Glo, MDA-MB-436; type: cell-based; details: Homo sapiens; for inhibition at 0.00508 µM: MDA-MB-436, MDA-MB-436, Conc. 0.00508 uM; for inhibition at 0.0152 µM: MDA-MB-436, MDA-MB-436, Conc. 0.0152 uM; for inhibition at 0.0457 µM: MDA-MB-436, MDA-MB-436, Conc. 0.0457 uM; for inhibition at 0.41 µM: MDA-MB-436, MDA-MB-436, Conc. 0.41 uM; for inhibition at 1.23 µM: MDA-MB-436, MDA-MB-436, Conc. 1.23 uM; for inhibition at 3.7 µM: MDA-MB-436, MDA-MB-436, Conc. 3.70 uM; for inhibition at 11.11 µM: MDA-MB-436, MDA-MB-436, Conc. 11.11 uM; for inhibition at 33.33 µM: MDA-MB-436, MDA-MB-436, Conc. 33.33 uM; for inhibition at 100 µM: MDA-MB-436, MDA-MB-436, Conc. 100.00 uM; for IC50: MDA-MB-436, 72 h, CellTiter-Glo, read-out: MDA-MB-436 IC50
Outline: (§2)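 Luminescent ATP read-out (CellTiter-Glo, 60 min at room temperature) quantified viability after a 72 h compound exposure at 37 °C, 5% CO2. Compounds, diluted from DMSO stocks into growth medium, were added to cells plated the previous day.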

[2] = test system: CAPAN-1 (a BRCA-2-mutated pancreatic cancer cell line); experiment: Cell proliferation assay, three-day, CellTiter-Glo, CAPAN-1; type: cell-based; details: Homo sapiens; for IC50: CAPAN-1, 72 h, CellTiter-Glo, read-out: CAPAN-1 IC50; for inhibition at 0.00508 µM: CAPAN-1, Conc. 0.00508 uM; for inhibition at 0.0152 µM: CAPAN-1, Conc. 0.0152 uM; for inhibition at 0.0457 µM: CAPAN-1, Conc. 0.0457 uM; for inhibition at […]: CAPAN-1, Conc. 0.14 uM; for inhibition at 0.41 µM: CAPAN-1, Conc. 0.41 uM; for inhibition at 1.23 µM: CAPAN-1, Conc. 1.23 uM; for inhibition at 3.7 µM: CAPAN-1, Conc. 3.70 uM; for inhibition at 11.11 µM: CAPAN-1, Conc. 11.11 uM; for inhibition at 33.33 µM: CAPAN-1, Conc. 33.33 uM; for inhibition at 100 µM: CAPAN-1, Conc. 100.00 uM
Outline: as §2

[3] = supplement sheet, read-out: 10 nM inhibition% PAPR-1
[4] = read-out: PARP-1 Inhibition % (10 nM)
[5] = supplement sheet, read-out: 10 nM inhibition% PAPR-2
[6] = read-out: PARP-2 Inhibition % (10 nM)

- inhibition at 0.01 µM (PARP-1; [3]): 24.8%
- inhibition at 0.01 µM (PARP-1; [4]): 24.8%
- inhibition at 0.01 µM (PARP-2; [5]): 32.8%
- inhibition at 0.01 µM (PARP-2; [6]): 32.8%
- IC50 [1]: > 100 µM
- IC50 [2]: > 100 µM
SMILES: NCCN1CCC(c2nc3c(C(N)=O)cccc3[nH]2)C1 (stereo not shown) [Compound 5cm, 2-(1-(2-Aminoethyl)pyrrolidin-3-yl)-1H-benzo[d]imidazole-4-carboxamide]
- inhibition at 0.00508 µM ([1]; replicate 1, read-out: Inh % 1): -8.5%
- inhibition at 0.00508 µM ([1]; replicate 2, read-out: Inh % 2): -9.3%
- inhibition at 0.0152 µM ([1]; replicate 1, read-out: Inh % 1): 1.1%
- inhibition at 0.0152 µM ([1]; replicate 2, read-out: Inh % 2): -4.9%
- inhibition at 0.0457 µM ([1]; replicate 1, read-out: Inh % 1): -11.2%
- inhibition at 0.0457 µM ([1]; replicate 2, read-out: Inh % 2): -10.5%
- inhibition at 0.41 µM ([1]; replicate 1, read-out: Inh % 1): -6.2%
- inhibition at 0.41 µM ([1]; replicate 2, read-out: Inh % 2): -16.8%
- inhibition at 1.23 µM ([1]; replicate 1, read-out: Inh % 1): -5.3%
- inhibition at 1.23 µM ([1]; replicate 2, read-out: Inh % 2): -11.1%
- inhibition at 3.7 µM ([1]; replicate 1, read-out: Inh % 1): -4.9%
- inhibition at 3.7 µM ([1]; replicate 2, read-out: Inh % 2): -6.8%
- inhibition at 11.11 µM ([1]; replicate 1, read-out: Inh % 1): -3.6%
- inhibition at 11.11 µM ([1]; replicate 2, read-out: Inh % 2): -6.5%
- inhibition at 33.33 µM ([1]; replicate 1, read-out: Inh % 1): 3%
- inhibition at 33.33 µM ([1]; replicate 2, read-out: Inh % 2): -4.3%
- inhibition at 100 µM ([1]; replicate 1, read-out: Inh % 1): 16.7%
- inhibition at 100 µM ([1]; replicate 2, read-out: Inh % 2): 7.9%
- inhibition at 0.00508 µM ([2]; replicate 1, read-out: Inh % 1): -3.2%
- inhibition at 0.00508 µM ([2]; replicate 2, read-out: Inh % 2): 4.5%
- inhibition at 0.0152 µM ([2]; replicate 1, read-out: Inh % 1): -3%
- inhibition at 0.0152 µM ([2]; replicate 2, read-out: Inh % 2): -13.2%
- inhibition at 0.0457 µM ([2]; replicate 1, read-out: Inh % 1): -3.1%
- inhibition at 0.0457 µM ([2]; replicate 2, read-out: Inh % 2): -9.3%
- inhibition at […] ([2]; replicate 1, read-out: Inh % 1): 0.182%
- inhibition at […] ([2]; replicate 2, read-out: Inh % 2): -8.2%
- inhibition at 0.41 µM ([2]; replicate 1, read-out: Inh % 1): 4%
- inhibition at 0.41 µM ([2]; replicate 2, read-out: Inh % 2): -2.2%
- inhibition at 1.23 µM ([2]; replicate 1, read-out: Inh % 1): -2.5%
- inhibition at 1.23 µM ([2]; replicate 2, read-out: Inh % 2): -0.9%
- inhibition at 3.7 µM ([2]; replicate 1, read-out: Inh % 1): 0.8%
- inhibition at 3.7 µM ([2]; replicate 2, read-out: Inh % 2): 2.3%
- inhibition at 11.11 µM ([2]; replicate 1, read-out: Inh % 1): -3.4%
- inhibition at 11.11 µM ([2]; replicate 2, read-out: Inh % 2): 4.2%
- inhibition at 33.33 µM ([2]; replicate 1, read-out: Inh % 1): -1.1%
- inhibition at 33.33 µM ([2]; replicate 2, read-out: Inh % 2): -7.7%
- inhibition at 100 µM ([2]; replicate 1, read-out: Inh % 1): 0.459%
- inhibition at 100 µM ([2]; replicate 2, read-out: Inh % 2): -6%

- inhibition at 0.01 µM (PARP-1; [3]): 19.4%
- inhibition at 0.01 µM (PARP-1; [4]): 19.4%
- inhibition at 0.01 µM (PARP-2; [5]): 39.1%
- inhibition at 0.01 µM (PARP-2; [6]): 39.1%
- IC50 [1]: > 100 µM
- IC50 [2]: > 100 µM
SMILES: NC(=O)c1cccc2[nH]c(C3CCN(CCCNC(=O)c4ccccc4)C3)nc12 (stereo not shown) [Compound 5cn, 2-(1-(3-Benzamidopropyl)pyrrolidin-3-yl)-1H-benzo[d]imidazole-4-carboxamide]
- inhibition at 0.00508 µM ([1]; replicate 1, read-out: Inh % 1): 1.6%
- inhibition at 0.00508 µM ([1]; replicate 2, read-out: Inh % 2): -5.1%
- inhibition at 0.0152 µM ([1]; replicate 1, read-out: Inh % 1): -1.4%
- inhibition at 0.0152 µM ([1]; replicate 2, read-out: Inh % 2): -3.5%
- inhibition at 0.0457 µM ([1]; replicate 1, read-out: Inh % 1): -9.2%
- inhibition at 0.0457 µM ([1]; replicate 2, read-out: Inh % 2): -11%
- inhibition at 0.41 µM ([1]; replicate 1, read-out: Inh % 1): -8.3%
- inhibition at 0.41 µM ([1]; replicate 2, read-out: Inh % 2): -13.4%
- inhibition at 1.23 µM ([1]; replicate 1, read-out: Inh % 1): -3%
- inhibition at 1.23 µM ([1]; replicate 2, read-out: Inh % 2): -5.3%
- inhibition at 3.7 µM ([1]; replicate 1, read-out: Inh % 1): -5.2%
- inhibition at 3.7 µM ([1]; replicate 2, read-out: Inh % 2): -8.2%
- inhibition at 11.11 µM ([1]; replicate 1, read-out: Inh % 1): -2.1%
- inhibition at 11.11 µM ([1]; replicate 2, read-out: Inh % 2): -9.2%
- inhibition at 33.33 µM ([1]; replicate 1, read-out: Inh % 1): 12.1%
- inhibition at 33.33 µM ([1]; replicate 2, read-out: Inh % 2): 1.5%
- inhibition at 100 µM ([1]; replicate 1, read-out: Inh % 1): 21.7%
- inhibition at 100 µM ([1]; replicate 2, read-out: Inh % 2): 20.8%
- inhibition at 0.00508 µM ([2]; replicate 1, read-out: Inh % 1): 9.5%
- inhibition at 0.00508 µM ([2]; replicate 2, read-out: Inh % 2): -3.8%
- inhibition at 0.0152 µM ([2]; replicate 1, read-out: Inh % 1): -9.3%
- inhibition at 0.0152 µM ([2]; replicate 2, read-out: Inh % 2): -9.4%
- inhibition at 0.0457 µM ([2]; replicate 1, read-out: Inh % 1): 1%
- inhibition at 0.0457 µM ([2]; replicate 2, read-out: Inh % 2): 6.5%
- inhibition at […] ([2]; replicate 1, read-out: Inh % 1): 4.6%
- inhibition at […] ([2]; replicate 2, read-out: Inh % 2): -10%
- inhibition at 0.41 µM ([2]; replicate 1, read-out: Inh % 1): -2.8%
- inhibition at 0.41 µM ([2]; replicate 2, read-out: Inh % 2): -4.1%
- inhibition at 1.23 µM ([2]; replicate 1, read-out: Inh % 1): 3.1%
- inhibition at 1.23 µM ([2]; replicate 2, read-out: Inh % 2): -3.2%
- inhibition at 3.7 µM ([2]; replicate 1, read-out: Inh % 1): 5.2%
- inhibition at 3.7 µM ([2]; replicate 2, read-out: Inh % 2): -3%
- inhibition at 11.11 µM ([2]; replicate 1, read-out: Inh % 1): 2.8%
- inhibition at 11.11 µM ([2]; replicate 2, read-out: Inh % 2): -7.6%
- inhibition at 33.33 µM ([2]; replicate 1, read-out: Inh % 1): 5.2%
- inhibition at 33.33 µM ([2]; replicate 2, read-out: Inh % 2): 2%
- inhibition at 100 µM ([2]; replicate 1, read-out: Inh % 1): 27.8%
- inhibition at 100 µM ([2]; replicate 2, read-out: Inh % 2): 14.3%
